# Molecular target: T1, GSK3β (Homo sapiens, UniProt P49841)
# T1 construct: purchased Upstate 14-306
# Test: GSK3β biochemical in vitro assay (coupled pyruvate kinase/lactate dehydrogenase, NADH fluorescence)
# Details: 5 nM GSK3β, 50 μM ATP, 40 μM GSM substrate, 30° C., 2 hours
# Method: The inhibitory activity of active substances is determined in a biochemical assay. The ingredients required for this purpose are mixed in a black 384-well microtitre plate with transparent base (from Greiner, catalogue number 781092). The requirements in this connection for each well of the 384-well microtitre plate are 5 nM GSK3β (from Upstate, catalogue number 14-306), 40 μM GSK3β substrate GSM (sequence H-RRRPASVPPSPSLSRHS-(pS)-HQRR, from Upstate, catalogue number 2-533), 30 μM nicotinamide adenine dinucleotide NADH (Roche Diagnostics, catalogue number 10107735), 50 μM adenosine triphosphate ATP (from Sigma, catalogue number A7966), 2 mM phosphoenolpyruvate (from Roche, catalogue number 128112), and also about 1 U/ml of pyruvate kinase and about 1 U/ml of lactate dehydrogenase, which are present together in a stock formulation (from Roche, catalogue number 10737291001, suspension with about 450 U/ml of pyruvate kinase activity, about 450 U/ml of lactate dehydrogenase activity in […] ammonium sulphate solution pH 6), where 1 unit pyruvate kinase converts, at pH 7.6 and 37° C., 1 μmol of phosphoenolpyruvate into pyruvate per minute, and where 1 unit of lactate dehydrogenase reduces, at pH 7.5 and 37° C., 1 μmol of pyruvate to lactate per minute. The required reaction buffer in which the biochemical reaction takes place consists of 50 mM Trizma hydrochloride Tris-HCl pH: 7.5 (from Sigma, catalogue number T3253), 5 mM magnesium chloride MgCl2 (from Sigma, catalogue number M8266), 0.2 mM DL-dithiothreitol DTT (from Sigma, catalogue number D9779), 2 mM ethylenediaminetetraacetic acid EDTA (from Sigma, catalogue number E6758), 0.01% Triton X-100 (from Sigma, catalogue number T8787) and 0.05% bovine serum albumin BSA (from Sigma, catalogue number B4287).
# Active substances are dissolved in dimethyl sulphoxide DMSO (from Sigma, catalogue number D8418) in a concentration of 10 mM. Active substances are added in serial concentrations of 10 μM, 1 μM, 0.1 μM, 0.01 μM, 0.001 μM, 0.0001 μM, 0.00001 μM, 0.000001 μM to the mixtures of the biochemical reaction. As control, dimethyl sulphoxide is added instead of substance in a final concentration of 0.1%.
# The reaction is incubated at 30° C. for 2 hours and then the resulting fluorescence is measured in a Tecan Safire-XFLUOR4 instrument, version V4.50 (serial number 12901300283) with the specifications: measurement mode—fluorescence measured from below, excitation wavelength 340 nm, emission wavelength 465 nm, slit width excitation 5 nm, slit width emission 5 nm, gain mode 120, delay 0 μs, number of light flashes per measurement 3, and an integration time of 40 μs.
# The activity of the active substances is calculated in relation to these 0% and 100%.
# T1 sequence (P49841 whole entry): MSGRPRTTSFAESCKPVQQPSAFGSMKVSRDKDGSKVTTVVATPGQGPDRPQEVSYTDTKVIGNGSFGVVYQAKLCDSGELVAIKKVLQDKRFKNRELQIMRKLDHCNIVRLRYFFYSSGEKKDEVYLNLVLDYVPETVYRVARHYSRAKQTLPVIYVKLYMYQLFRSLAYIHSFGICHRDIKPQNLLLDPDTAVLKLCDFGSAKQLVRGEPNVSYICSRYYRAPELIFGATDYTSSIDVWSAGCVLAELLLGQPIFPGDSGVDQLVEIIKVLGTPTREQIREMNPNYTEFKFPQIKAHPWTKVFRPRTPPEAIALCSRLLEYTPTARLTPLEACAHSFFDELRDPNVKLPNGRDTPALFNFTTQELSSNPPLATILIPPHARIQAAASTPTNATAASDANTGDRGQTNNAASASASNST
row,IC50 [nM],Structure (SMILES)
1,13,"Nc1nc(NCCNc2nc(-c3ccc(Cl)cc3Cl)cn3ncnc23)ccc1C(=O)C(F)(F)F [Example 6, 1-{2-Amino-6-[(2-{[6-(2,4-dichlorophenyl)[1,2,4]triazolo[1,5-a]pyrazin-8-yl]amino}ethyl)amino]-pyridin-3-yl}-2,2,2-trifluoroethanone]"
2,9.1,"Nc1nc(NCCNc2nc(-c3ccc(Cl)cc3Cl)nn3cnnc23)ccc1C(=O)C(F)(F)F [Example 8, 1-{2-Amino-6-[(2-{[6-(2,4-dichlorophenyl)[1,2,4]triazolo[3,4-f][1,2,4]triazin-8-yl]amino}ethyl)-amino]pyridin-3-yl}-2,2,2-trifluoroethanone]"
3,4.4,"CCC(=O)c1ccc(NC2CCCN(c3nc(-c4ccc(Cl)cc4Cl)nn4cnnc34)C2)nc1N (stereo not shown) [Example 11, 1-[2-Amino-6-({1-[6-(2,4-dichlorophenyl) [1,2,4]triazolo[3,4-f][1,2,4]triazin-8-yl]piperidin-3-yl}-amino)pyridin-3-yl]propan-1-one]"
4,3.2,"N#Cc1sc(NCCNc2nc(-c3ccc(Cl)cc3Cl)cn3ncnc23)nc1N [Example 15, 4-Amino-2-[(2-{[6-(2,4-dichlorophenyl)[1,2,4]triazolo[1,5-a]pyrazin-8-yl]amino}ethyl)amino]-1,3-thiazole-5-carbonitrile]"

# Reference: patent US20090258877A1, “TRIAZOLOTRIAZINES AND TRIAZOLOPYRAZINES AND THEIR USE” (BAYER HEALTHCARE AG, priority 2007, published 2009)
